Measurements: ChEMBL document CHEMBL4387784, “Triterpenoids from Ganoderma gibbosum: A Class of Sensitizers of FLC-Resistant Candida albicans to Fluconazole” (2019)
Calls of active or inactive are those of the source. No cut-off for these calls is given here.

Legend:
[1] = test system: Candida albicans; test: Antifungal activity against normal Candida albicans assessed as inhibition of microbial growth at 200 ug/mL incubated for 24 hrs by microbroth dilution assay relative to untreated control; type: functional; conditions: read-out: GI
[2] = test system: Candida albicans; test: Chemo-sensitization of fluconazole antifungal activity against FLC-resistant Candida albicans assessed as inhibition of microbial growth at 200 ug/mL in presence of fluconazole incubated for 24 hrs by microbroth dilution assay relative to untreated control; type: functional, organism-based
[3] = test system: Candida albicans; test: Chemo-sensitization of fluconazole antifungal activity against FLC-resistant Candida albicans assessed as inhibition of microbial growth in presence of fluconazole at 1:1 ratio of compound to fluconazole incubated for 24 hrs by microbroth dilution assay relative to untreated control; type: functional
[4] = test system: Candida albicans; test: Antifungal activity against FLC-resistant Candida albicans assessed as inhibition of microbial growth incubated for 24 hrs by microbroth dilution assay relative to untreated control; type: functional
[5] = test system: Candida albicans; test: Antifungal activity against FLC-resistant Candida albicans assessed as inhibition of microbial growth at 200 ug/mL incubated for 24 hrs by microbroth dilution assay relative to untreated control; type: functional; conditions: read-out: GI

Question: For C=C(C)[C@@H]1C[C@H]2O[C@@]23C(=CC(=O)[C@]2(C)[C@@H](/C(C)=C/[C@H]4C[C@H](C)C(=O)O4)C[C@@H](O)[C@]23C)[C@@]1(C)CCC(=O)O, which inhibition of growth at 200 µg/mL [1] is on record?
Answer: < 50%

Question: What about the “growth inhibition (GI)” value [2] of the same compound?
Answer: Active

Question: And the MIC50 [3]?
Answer: 25.8 µg/mL

Question: With OC(Cn1cncn1)(Cn1cncn1)c1ccc(F)cc1F [FLUCONAZOLE] as the compound, how does the MIC50 [4] read?
Answer: 6.3 µg/mL

Question: How did the inhibition of growth at 200 µg/mL [1] turn out when C/C(=C\C(=O)C[C@H](C)C(=O)O)[C@H]1C[C@H](O)[C@@]2(C)C3=C(C=C[C@]12C)[C@@]1(C)CCC(=O)C(C)(C)[C@@H]1CC3=O was run?
Answer: < 50%

Question: What about the “growth inhibition (GI)” value [2] of the same compound?
Answer: Active

Question: And the MIC50 [3]?
Answer: 5.1 µg/mL

Question: For C[C@H]1C[C@@]2(C[C@](C)(O)C3=C[C@@H](O)[C@@]4(C)C5=C(C(=O)[C@H](O2)[C@]34C)[C@@]2(C)CCC(=O)C(C)(C)[C@@H]2CC5=O)OC1=O, which inhibition of growth at 200 µg/mL [1] is on record?
Answer: < 50%

Question: And the “growth inhibition (GI)” value [2]?
Answer: Active

Question: And the MIC50 [3]?
Answer: 78 µg/mL

Question: Which inhibition of growth at 200 µg/mL [1] does the source give for C/C(=C\C(=O)C[C@H](C)C(=O)O)[C@H]1C[C@@H](O)[C@@]2(C)C3=C(C[C@H](O)[C@]12C)[C@@]1(C)CCC(=O)C(C)(C)[C@@H]1CC3=O here?
Answer: < 50%

Question: And the “growth inhibition (GI)” value [2]?
Answer: Active

Question: Which inhibition of growth at 200 µg/mL [1] does the source give for C[C@@H](CC(=O)C[C@](C)(O)C1=C[C@H](O)[C@]2(C)[C@]1(C)C(=O)C=C1[C@]23O[C@H]3C[C@H]2C(C)(C)C(=O)CC[C@]12C)C(=O)O here?
Answer: < 50%

Question: What about the “growth inhibition (GI)” value [2] of the same compound?
Answer: Active

Question: And the MIC50 [3]?
Answer: 37.7 µg/mL

Question: How did the inhibition of growth at 200 µg/mL [1] turn out when C[C@@H](CC(=O)C[C@](C)(O)C1=C[C@@H](O)[C@]2(C)[C@]1(C)C(=O)C=C1[C@]23O[C@H]3C[C@H]2C(C)(C)[C@@H](O)CC[C@]12C)C(=O)O was run?
Answer: < 50%

Question: And the “growth inhibition (GI)” value [2]?
Answer: Active

Question: And the MIC50 [3]?
Answer: 8.8 µg/mL

Question: What does the source list for C=C(C)[C@@H]1C[C@H]2O[C@@]23C(=CC(=O)[C@]2(C)[C@@H](/C(C)=C/[C@H]4C[C@H](C)C(=O)O4)C[C@H](O)[C@]23C)[C@@]1(C)CCC(=O)OC?
Answer: inhibition of growth at 200 µg/mL [1]: < 50%; growth inhibition (GI) [2]: Active; MIC50 [3]: 129 µg/mL

Question: C/C(=C\C(=O)C[C@H](C)C(=O)O)[C@H]1C[C@@H](O)[C@@]2(C)C3=C(C=C[C@]12C)[C@@]1(C)CCC(=O)C(C)(C)[C@@H]1CC3=O was tested. Which inhibition of growth at 200 µg/mL [1] did it give?
Answer: < 50%

Question: What about the “growth inhibition (GI)” value [2] of the same compound?
Answer: Active

Question: How did the inhibition of growth at 200 µg/mL [1] turn out when C=C(C)[C@@H]1C[C@H]2O[C@@]23C(=CC(=O)[C@]2(C)[C@@H](/C(C)=C/[C@H]4C[C@H](C)C(=O)O4)C[C@H](O)[C@]23C)[C@@]1(C)CCC(=O)O was run?
Answer: < 50%

Question: And the “growth inhibition (GI)” value [2]?
Answer: Active

Question: What about the MIC50 [3] of the same compound?
Answer: 29.4 µg/mL

Question: C[C@@H](CC(=O)C[C@](C)(O)C1=CC(=O)[C@]2(C)[C@]1(C)C(=O)C=C1[C@]23O[C@H]3C[C@H]2C(C)(C)[C@@H](O)CC[C@]12C)C(=O)O was tested. Which inhibition of growth at 200 µg/mL [1] did it give?
Answer: < 50%

Question: What about the “growth inhibition (GI)” value [2] of the same compound?
Answer: Active

Question: And the MIC50 [3]?
Answer: 28.3 µg/mL

Question: Which results are given for C/C(=C\C(=O)C[C@H](C)C(=O)O)[C@H]1C[C@H](O)[C@@]2(C)C3=CC[C@H]4C(C)(C)C(=O)CC[C@]4(C)C3=CC(=O)[C@]12C?
Answer: inhibition of growth at 200 µg/mL [1]: < 50%; growth inhibition (GI) [2]: Active; MIC50 [3]: 70 µg/mL

Question: With C/C(=C\C(=O)C[C@H](C)C(=O)O)[C@H]1C[C@@H](O)[C@@]2(C)C3=C(C(=O)[C@H](O)[C@]12C)[C@@]1(C)CCC(=O)C(C)(C)[C@@H]1CC3=O as the compound, how does the inhibition of growth at 200 µg/mL [1] read?
Answer: < 50%

Question: What about the “growth inhibition (GI)” value [2] of the same compound?
Answer: Active

Question: And the MIC50 [3]?
Answer: 4.4 µg/mL

Question: Which inhibition of growth at 200 µg/mL [1] does the source give for C/C(=C\[C@@H]1C[C@H](C)C(=O)O1)[C@H]1C[C@@H](O)[C@]2(C)[C@]1(C)C(=O)C=C1[C@@]3(C)CCC(=O)C(C)(C)[C@@H]3C[C@H]3O[C@@]132 here?
Answer: < 50%

Question: And the “growth inhibition (GI)” value [2]?
Answer: Active

Question: What about the MIC50 [3] of the same compound?
Answer: 37.8 µg/mL

Question: With C/C(=C\C(=O)C[C@H](C)C(=O)O)[C@H]1C[C@@H](O)[C@@]2(C)C3=C([C@@H](O)[C@H](O)[C@]12C)[C@@]1(C)CCC(=O)C(C)(C)[C@@H]1CC3=O as the compound, how does the inhibition of growth at 200 µg/mL [1] read?
Answer: < 50%

Question: And the “growth inhibition (GI)” value [2]?
Answer: Active

Question: Which results are given for C/C(=C\C(=O)C[C@H](C)C(=O)O)[C@H]1C[C@H](O)[C@@]2(C)[C@]34O[C@@H]3C[C@H]3C(C)(C)C(=O)CC[C@]3(C)C4=CC(=O)[C@]12C?
Answer: inhibition of growth at 200 µg/mL [1]: 55%; inhibition of growth at 200 µg/mL [5]: < 50%; growth inhibition (GI) [2]: Active; MIC50 [3]: 7.3 µg/mL

Question: Which results are given for C/C(=C\[C@H]1C[C@H](C)C(=O)O1)[C@H]1C[C@H](O)[C@]2(C)[C@]1(C)C(=O)C=C1[C@@]3(C)CCC(=O)C(C)(C)[C@@H]3C[C@H]3O[C@@]132?
Answer: inhibition of growth at 200 µg/mL [1]: < 50%; growth inhibition (GI) [2]: Active; MIC50 [3]: 47.9 µg/mL

Question: C[C@@H](CC(=O)C[C@](C)(O)C1=C[C@@H](O)[C@]2(C)[C@]1(C)C(=O)C=C1[C@]23O[C@H]3C[C@H]2C(C)(C)C(=O)CC[C@]12C)C(=O)O was tested. Which inhibition of growth at 200 µg/mL [1] did it give?
Answer: < 50%

Question: And the “growth inhibition (GI)” value [2]?
Answer: Active

Question: And the MIC50 [3]?
Answer: 29 µg/mL

Question: How did the inhibition of growth at 200 µg/mL [1] turn out when C/C(=C\[C@H]1C[C@H](C)C(=O)O1)[C@H]1C[C@@H](O)[C@]2(C)[C@]1(C)C(=O)C=C1[C@@]3(C)CCC(=O)C(C)(C)[C@@H]3C[C@H]3O[C@@]132 was run?
Answer: < 50%

Question: And the “growth inhibition (GI)” value [2]?
Answer: Active

Question: And the MIC50 [3]?
Answer: 5 µg/mL

Question: With C/C(=C\[C@@H]1C[C@H](C)C(=O)O1)[C@H]1C[C@H](O)[C@]2(C)[C@]1(C)C(=O)C=C1[C@@]3(C)CCC(=O)C(C)(C)[C@@H]3C[C@H]3O[C@@]132 as the compound, how does the inhibition of growth at 200 µg/mL [1] read?
Answer: < 50%

Question: And the “growth inhibition (GI)” value [2]?
Answer: Active

Question: And the MIC50 [3]?
Answer: 4.7 µg/mL

Question: What does the source list for C[C@@H](CC(=O)C[C@](C)(O)C1=CC(=O)[C@]2(C)[C@]1(C)C(=O)C=C1[C@]23O[C@H]3C[C@H]2C(C)(C)C(=O)CC[C@]12C)C(=O)O?
Answer: inhibition of growth at 200 µg/mL [1]: < 50%; growth inhibition (GI) [2]: Active; MIC50 [3]: 3.8 µg/mL

Question: C/C(=C\C(=O)C[C@H](C)C(=O)O)[C@H]1C[C@H](O)[C@@]2(C)[C@]34O[C@H]3C[C@H]3C(C)(C)C(=O)CC[C@]3(C)C4=CC(=O)[C@]12C was tested. Which inhibition of growth at 200 µg/mL [1] did it give?
Answer: < 50%

Question: And the “growth inhibition (GI)” value [2]?
Answer: Active
